Test systems include BT-549; CAKI-1; COLO 205; DU-145; HCT-116; HL-60; HOP-62; HOP-92; HT-29; Hs-578T; K562; M14; MCF7; NCI-H226; NCI-H460; RPMI-8226; SF-268; SK-MEL-28; SK-MEL-5; SW-620.
What all share (assay): DTP human tumour cell line panel, 48 h

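96-well plates; 48 h exposure; 5 concentrations. Endpoints by linear interpolation between flanking doses. Not reached: highest tested concentration assigned. GI50 = concentration required for 50% inhibition of growth.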 The source made the active and inactive calls. No stated cut-off is given here; in the data, active = GI50 up to about 1.1 µM and inactive = higher. Starred links: 1 amine or outer side, 2 acyl side, 3 side chain; linkers in the order of their positions; H or OH if unused. Positions of bridges follow the written chain, without caps; N, C: chain ends. Non-standard residues stand in square brackets, D forms with d. Residues, ends and D or L forms follow the SMILES beside them. *: point of attachment. X40 = CC[C@H](C)[C@@H](N[*:1])[C@@H](O)CC(=O)[*:2]; NMeY = CN[C@@H](Cc1ccc(O)cc1)C(=O)O; dNMeL = CN[C@H](CC(C)C)C(=O)O; Hiv = CC(C)[C@H](O)C(=O)O; Pyruvoyl = CC(=O)C(=O)*

On to `CC(C)(C)SC1=CCC[C@@H](P(=O)(c2ccccc2)c2ccccc2)[C@@H]2CCC[C@@H]12`, for which the GI50 (as a rule, the concentration giving 50% growth inhibition) was 17.8 µM (inactive) in the assay on BT-549; 13.8 µM (inactive) in the assay on CAKI-1; 18 µM (inactive) in the assay on COLO 205; 17.2 µM (inactive) with DU-145; 14.3 µM (inactive) in the assay on HCT-116; 20 µM (inactive) with HL-60. Also, the GI50 in the assay with HOP-62 was 17 µM (inactive); with HOP-92, 13.7 µM (inactive); in the assay on HT-29 it was 14.2 µM (inactive); in the assay with Hs-578T, 20.7 µM (inactive); in the assay with K562 it was 19.3 µM (inactive); with M14, 15.3 µM (inactive). In addition, the GI50 with MCF7 was 16.2 µM (inactive); with NCI-H226, 17.7 µM (inactive); in the assay on NCI-H460, 15.7 µM (inactive); with RPMI-8226, 19.1 µM (inactive); with SF-268 it was 17.8 µM (inactive); in the assay on SK-MEL-28 it was 24.3 µM (inactive). The GI50 in the assay on SK-MEL-5 was 17.7 µM (inactive); in the assay with SW-620, 27 µM (inactive).

In the case of `O=c1oc2ccccc2cc1-c1cn2c(n1)sc1ccccc12`, the GI50 in the assay on BT-549 is > 100 µM (inactive); in the assay on CAKI-1, > 100 µM (inactive); with COLO 205, > 100 µM (inactive); in the assay with DU-145, > 100 µM (inactive); with HCT-116 it was 75.5 µM (inactive); in the assay on HL-60, > 100 µM (inactive). For the same compound, the GI50 in the assay with HOP-62 is > 100 µM (inactive); in the assay on HOP-92, > 100 µM (inactive); in the assay with HT-29 it was 1.15 µM (inactive); in the assay with Hs-578T, > 100 µM (inactive); in the assay on K562 it was > 100 µM (inactive); in the assay with M14, > 100 µM (inactive). For the same compound, the GI50 is 4.75 µM (inactive) in the assay on MCF7; > 100 µM (inactive) with NCI-H226; > 100 µM (inactive) with NCI-H460; > 100 µM (inactive) in the assay on RPMI-8226; 52.6 µM (inactive) in the assay on SF-268; > 100 µM (inactive) in the assay on SK-MEL-28. Also, the GI50 in the assay with SK-MEL-5 and with SW-620 was > 100 µM (inactive) each time.

Take `CC[C@H](C)[C@H]1NC(=O)[C@@H](NC(=O)[C@@H](CC(C)C)N(C)C(=O)[C@@H]2CCCN2C(=O)C(C)=O)[C@@H](C)OC(=O)[C@H](Cc2ccc(OC)cc2)N(C)C(=O)[C@@H]2CCCN2C(=O)[C@H](CC(C)C)NC(=O)[C@H](C(C)C)OC(=O)C[C@@H]1O` (Pyruvoyl-P[dNMeL]T[X40][Hiv]LP[NMeY](Me); ester 3-C): the GI50 in the assay on BT-549 is 0.00617 µM (active); in the assay on CAKI-1, 0.0581 µM (active); in the assay with COLO 205, 0.00368 µM (active); in the assay on DU-145, 0.00372 µM (active); in the assay on HCT-116, 0.00222 µM (active); in the assay on HL-60 it was 0.05 µM (active). Further, the GI50 in the assay with HOP-62 was 0.0046 µM (active); in the assay with HOP-92, 0.0302 µM (active); in the assay with HT-29, 0.00434 µM (active); in the assay with Hs-578T, 0.00476 µM (active); in the assay on K562, 0.00353 µM (active); with M14 it was 0.00269 µM (active). The GI50 with MCF7 is 0.00232 µM (active); with NCI-H226, 0.0159 µM (active); in the assay with NCI-H460 it was 0.00429 µM (active); in the assay with RPMI-8226 it was 0.00545 µM (active); with SF-268, 0.00569 µM (active); in the assay with SK-MEL-28, 0.005 µM (active). Also, the GI50 in the assay with SK-MEL-5 was 0.00393 µM (active); in the assay on SW-620 it was 0.00505 µM (active).

For the compound `CC(=O)O[C@H]1CCc2c(cc(N)c3c2C(=O)C[C@]2(C)C([C@H](C)CCCC(C)C)CCC32C)C1(C)C` (stereo not given in full), the GI50 in the assay with BT-549 is > 100 µM (inactive); with CAKI-1, > 100 µM (inactive); in the assay on COLO 205 it was > 100 µM (inactive); with DU-145, > 100 µM (inactive); in the assay on HCT-116, 89.7 µM (inactive); with HL-60, 66.5 µM (inactive). Moreover, the GI50 was > 100 µM (inactive) in the assay on HOP-62; > 100 µM (inactive) in the assay with HOP-92; 42.2 µM (inactive) in the assay with HT-29; 17.1 µM (inactive) in the assay on Hs-578T; 33.7 µM (inactive) in the assay with K562; > 100 µM (inactive) in the assay with M14. In addition, the GI50 was 57.9 µM (inactive) with MCF7; > 100 µM (inactive) with NCI-H226; > 100 µM (inactive) with NCI-H460; > 100 µM (inactive) in the assay with RPMI-8226; > 100 µM (inactive) with SF-268; > 100 µM (inactive) with SK-MEL-28. The GI50 in the assay with SK-MEL-5 and in the assay with SW-620 was > 100 µM (inactive) throughout.

On to `COC(=O)C1(Cc2cccc(C)c2)Cc2c(C)cccc2C1=O` (stereo not given), for which the GI50 with BT-549 is 56.1 µM (inactive); with CAKI-1, 64.9 µM (inactive); in the assay on COLO 205, 37.2 µM (inactive); in the assay on DU-145, > 100 µM (inactive); with HCT-116, 36.4 µM (inactive); with HL-60, > 100 µM (inactive). The GI50 with HOP-62 was 59.6 µM (inactive); in the assay with HOP-92, 30.4 µM (inactive); in the assay on HT-29 it was 29.6 µM (inactive); with Hs-578T it was 38.5 µM (inactive); with K562, 35.9 µM (inactive); in the assay with M14, 34.4 µM (inactive). Moreover, the GI50 with MCF7 is 33.7 µM (inactive); with NCI-H226 it was 44.9 µM (inactive); with NCI-H460 it was 45.4 µM (inactive); with RPMI-8226 it was > 100 µM (inactive); with SF-268 it was 58.5 µM (inactive); with SK-MEL-28, > 100 µM (inactive). The GI50 was 38.5 µM (inactive) in the assay on SK-MEL-5 and 31.4 µM (inactive) in the assay on SW-620.

The values above are taken from ChEMBL document CHEMBL1201862, “PubChem BioAssay data set” (2004).
